# Columns and labels:
# [1] = target: Acetylcholine-binding protein (Lymnaea stagnalis, UniProt P58154); assay: Displacement of [3H]epibatadine from Lymnaea stagnalis recombinant C-terminal His-tagged AChBP expressed in baculovirus infected SF9 cells after 1.5 hrs by scintillation counting analysis
# [2] = Selectivity ratio of Ki for Lymnaea stagnalis AChBP over Ki for Aplysia californica AChBP
# [3] = target: Neuronal acetylcholine receptor subunit alpha-7 (Homo sapiens, UniProt P36544); assay: Displacement of [3H]epibatadine from human alpha7 nAChR expressed in human SH-SY5Y cells after 1.5 hrs by scintillation counting analysis; assay type: cell-based
# [4] = Displacement of [3H]epibatadine from Aplysia californica recombinant C-terminal His-tagged AChBP expressed in baculovirus infected SF9 cells after 1.5 hrs by scintillation counting analysis
# [5] = target: Neuronal acetylcholine receptor; alpha4/beta2 (Homo sapiens, UniProt P17787+P43681); assay: Displacement of [3H]epibatadine from human alpha4beta2 nAChR expressed in HEK293T cells after 1.5 hrs by scintillation counting analysis; assay type: cell-based, HEK-293T
# [6] = Selectivity ratio of Ki for Lymnaea stagnalis recombinant C-terminal His-tagged AChBP to Ki for human alpha7 nAChR
# Neuronal acetylcholine receptor subunit alpha-7, sequence (P36544 whole entry): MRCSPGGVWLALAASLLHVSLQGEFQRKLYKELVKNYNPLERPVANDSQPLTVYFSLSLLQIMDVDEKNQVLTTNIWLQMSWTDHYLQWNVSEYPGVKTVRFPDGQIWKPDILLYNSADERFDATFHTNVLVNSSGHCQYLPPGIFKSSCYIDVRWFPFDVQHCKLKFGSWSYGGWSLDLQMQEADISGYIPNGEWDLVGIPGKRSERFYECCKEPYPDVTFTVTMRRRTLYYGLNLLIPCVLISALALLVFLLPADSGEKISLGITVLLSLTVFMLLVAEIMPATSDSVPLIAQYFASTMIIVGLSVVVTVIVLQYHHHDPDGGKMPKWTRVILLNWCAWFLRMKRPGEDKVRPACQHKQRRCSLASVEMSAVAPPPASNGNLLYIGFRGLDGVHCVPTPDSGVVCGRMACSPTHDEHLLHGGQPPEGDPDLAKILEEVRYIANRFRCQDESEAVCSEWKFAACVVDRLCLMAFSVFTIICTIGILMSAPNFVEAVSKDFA
# Acetylcholine-binding protein, sequence (P58154 whole entry): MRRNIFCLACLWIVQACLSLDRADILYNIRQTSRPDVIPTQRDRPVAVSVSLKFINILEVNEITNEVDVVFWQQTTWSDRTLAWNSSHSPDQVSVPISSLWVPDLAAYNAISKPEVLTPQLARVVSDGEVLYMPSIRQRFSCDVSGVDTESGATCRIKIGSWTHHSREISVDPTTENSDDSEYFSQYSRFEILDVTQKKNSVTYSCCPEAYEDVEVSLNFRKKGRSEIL
# Neuronal acetylcholine receptor; alpha4/beta2, sequence (P17787 whole entry): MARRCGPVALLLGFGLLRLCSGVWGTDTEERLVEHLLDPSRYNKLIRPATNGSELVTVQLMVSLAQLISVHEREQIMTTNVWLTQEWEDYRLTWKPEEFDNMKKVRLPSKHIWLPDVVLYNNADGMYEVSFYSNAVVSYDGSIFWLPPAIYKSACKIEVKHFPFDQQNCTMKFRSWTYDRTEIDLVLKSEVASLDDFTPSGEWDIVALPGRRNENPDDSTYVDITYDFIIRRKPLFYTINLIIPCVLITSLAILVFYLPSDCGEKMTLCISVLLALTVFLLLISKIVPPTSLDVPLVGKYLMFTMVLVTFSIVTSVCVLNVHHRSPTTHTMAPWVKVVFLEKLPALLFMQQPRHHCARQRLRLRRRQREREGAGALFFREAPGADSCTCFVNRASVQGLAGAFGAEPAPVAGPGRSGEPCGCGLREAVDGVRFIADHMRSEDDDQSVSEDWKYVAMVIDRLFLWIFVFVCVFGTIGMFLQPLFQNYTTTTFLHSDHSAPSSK
# Neuronal acetylcholine receptor; alpha4/beta2, sequence (P43681 whole entry): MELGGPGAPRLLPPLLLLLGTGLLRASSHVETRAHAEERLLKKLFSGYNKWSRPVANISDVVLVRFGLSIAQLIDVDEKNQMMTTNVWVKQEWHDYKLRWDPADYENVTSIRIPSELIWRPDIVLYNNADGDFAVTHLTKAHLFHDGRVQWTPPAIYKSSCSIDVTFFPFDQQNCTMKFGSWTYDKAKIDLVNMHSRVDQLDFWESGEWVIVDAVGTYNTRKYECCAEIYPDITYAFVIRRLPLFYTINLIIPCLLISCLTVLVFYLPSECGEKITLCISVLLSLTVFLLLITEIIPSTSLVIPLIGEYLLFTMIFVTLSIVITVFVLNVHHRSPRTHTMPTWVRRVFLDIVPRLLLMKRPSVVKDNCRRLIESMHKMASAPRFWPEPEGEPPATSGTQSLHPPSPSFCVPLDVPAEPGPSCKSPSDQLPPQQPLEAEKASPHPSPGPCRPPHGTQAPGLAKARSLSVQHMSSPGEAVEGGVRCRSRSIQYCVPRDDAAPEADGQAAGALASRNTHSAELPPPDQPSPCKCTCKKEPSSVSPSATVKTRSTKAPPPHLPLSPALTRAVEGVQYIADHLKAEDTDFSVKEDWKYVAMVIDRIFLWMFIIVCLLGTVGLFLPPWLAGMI
Structure (SMILES),Ki [1] [µM],Ratio Ki [2],Ki [3] [µM],pKi [4],Ki [5] [µM],Ratio Ki [6]
CC(C)N1CCC(=NO)CC1,10.5,> 9.5,10.2,< 4,> 100,–
Fc1ccc(F)c(NN=C2CCN(CCc3ccccc3)CC2)c1,0.0891,–,> 100,–,–,–
C[C@H](NC(=O)[C@H](CS)NC(=O)[C@H](CCCNC(=N)N)NC(=O)[C@@H]1CCCN1C(=O)[C@H](CC(=O)O)NC(=O)[C@H](CO)NC(=O)[C@H](CS)NC(=O)[C@H](CS)NC(=O)CN)C(=O)N[C@@H](Cc1c[nH]c2ccccc12)C(=O)N[C@@H](CCCNC(=N)N)C(=O)N[C@@H](CS)C(N)=O,–,> 6000,–,–,–,–
CN1[C@@H]2CC[C@H]1C/C(=N\Nc1ccccc1Cl)C2,0.204,–,2.19,–,–,5

# From ChEMBL document CHEMBL3217645, “Online parallel fragment screening and rapid hit exploration for nicotinic acetylcholine receptors” (Medchemcomm, 2011)
